# Measured values from BindingDB's records for doi:10.1016/0014-2999(89)90802-9 (Virginia Commonwealth University, 1989).
# How the values were obtained:
# [1] = molecular target: T1, 5-hydroxytryptamine receptor 3A (Rattus norvegicus, UniProt P35563)
# T1 sequence (P35563 whole entry): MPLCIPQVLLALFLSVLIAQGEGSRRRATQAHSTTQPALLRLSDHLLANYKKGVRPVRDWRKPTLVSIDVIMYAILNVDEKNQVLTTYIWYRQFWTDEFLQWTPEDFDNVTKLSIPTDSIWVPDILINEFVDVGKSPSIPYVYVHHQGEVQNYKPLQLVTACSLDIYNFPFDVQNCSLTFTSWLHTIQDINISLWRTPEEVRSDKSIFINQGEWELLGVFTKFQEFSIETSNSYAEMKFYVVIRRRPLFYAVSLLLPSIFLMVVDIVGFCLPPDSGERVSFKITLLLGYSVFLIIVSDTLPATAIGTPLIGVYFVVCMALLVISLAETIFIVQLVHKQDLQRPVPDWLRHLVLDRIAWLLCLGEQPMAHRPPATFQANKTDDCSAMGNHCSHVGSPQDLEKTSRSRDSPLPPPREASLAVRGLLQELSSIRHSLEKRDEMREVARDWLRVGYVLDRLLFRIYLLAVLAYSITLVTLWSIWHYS
# [2] = molecular target: 5-hydroxytryptamine receptor 2A (Rattus norvegicus, UniProt P14842)
# [3] = molecular target: 5-hydroxytryptamine receptor 1B (Rattus norvegicus, UniProt P28564)
# [4] = molecular target: T2, Solute carrier family 22 member 1 (Rattus norvegicus, UniProt Q63089)
# T2 sequence (Q63089 whole entry): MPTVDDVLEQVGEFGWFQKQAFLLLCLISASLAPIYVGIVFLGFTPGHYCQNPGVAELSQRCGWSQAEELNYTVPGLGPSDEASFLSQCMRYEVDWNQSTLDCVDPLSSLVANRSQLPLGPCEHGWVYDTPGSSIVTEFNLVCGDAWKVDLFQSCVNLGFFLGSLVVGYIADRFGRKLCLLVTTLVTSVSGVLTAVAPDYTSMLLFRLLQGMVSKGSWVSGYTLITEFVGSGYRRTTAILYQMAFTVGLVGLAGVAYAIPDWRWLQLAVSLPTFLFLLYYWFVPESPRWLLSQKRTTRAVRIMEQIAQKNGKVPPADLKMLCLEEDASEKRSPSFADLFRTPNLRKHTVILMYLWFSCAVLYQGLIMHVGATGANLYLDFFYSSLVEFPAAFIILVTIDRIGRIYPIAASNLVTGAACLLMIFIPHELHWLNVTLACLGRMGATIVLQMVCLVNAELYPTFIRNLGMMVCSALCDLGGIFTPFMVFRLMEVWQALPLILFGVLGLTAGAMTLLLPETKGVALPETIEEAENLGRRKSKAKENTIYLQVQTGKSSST
# [5] = molecular target: T3, Solute carrier family 22 member 2 (Rattus norvegicus, UniProt Q9R0W2)
# T3 sequence (Q9R0W2 whole entry): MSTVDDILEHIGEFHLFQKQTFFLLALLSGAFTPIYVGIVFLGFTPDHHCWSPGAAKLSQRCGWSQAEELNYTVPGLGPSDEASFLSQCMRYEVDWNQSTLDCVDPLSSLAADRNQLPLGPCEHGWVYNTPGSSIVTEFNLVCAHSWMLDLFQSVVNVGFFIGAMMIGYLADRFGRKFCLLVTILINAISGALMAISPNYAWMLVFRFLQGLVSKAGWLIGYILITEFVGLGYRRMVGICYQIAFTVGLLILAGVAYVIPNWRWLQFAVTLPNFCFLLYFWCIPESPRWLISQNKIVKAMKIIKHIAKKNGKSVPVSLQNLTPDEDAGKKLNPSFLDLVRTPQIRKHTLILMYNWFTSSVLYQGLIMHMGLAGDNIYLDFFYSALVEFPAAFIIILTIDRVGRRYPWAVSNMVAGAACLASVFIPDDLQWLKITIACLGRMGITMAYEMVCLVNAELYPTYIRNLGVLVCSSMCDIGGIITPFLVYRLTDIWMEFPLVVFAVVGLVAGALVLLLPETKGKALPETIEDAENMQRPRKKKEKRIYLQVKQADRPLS
# [6] = molecular target: T4, Muscarinic acetylcholine receptor M2 (Rattus norvegicus, UniProt P10980)
# T4 sequence (P10980 whole entry): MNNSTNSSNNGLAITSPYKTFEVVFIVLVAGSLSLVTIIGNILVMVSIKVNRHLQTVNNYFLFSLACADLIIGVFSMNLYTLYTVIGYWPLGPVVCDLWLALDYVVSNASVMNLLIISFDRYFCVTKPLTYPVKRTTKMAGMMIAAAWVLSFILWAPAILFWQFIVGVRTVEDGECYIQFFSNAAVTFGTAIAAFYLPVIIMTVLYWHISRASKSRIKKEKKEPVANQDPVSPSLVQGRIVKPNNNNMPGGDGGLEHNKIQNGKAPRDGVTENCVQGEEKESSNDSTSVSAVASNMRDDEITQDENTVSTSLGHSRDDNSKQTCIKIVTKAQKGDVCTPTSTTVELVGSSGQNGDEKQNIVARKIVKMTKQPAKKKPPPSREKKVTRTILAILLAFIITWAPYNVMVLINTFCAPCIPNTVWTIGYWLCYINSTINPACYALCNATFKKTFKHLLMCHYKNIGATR
# [7] = molecular target: Beta-2 adrenergic receptor (Rattus norvegicus, UniProt P10608)
# [8] = molecular target: T5, 5-hydroxytryptamine receptor 1A (Rattus norvegicus, UniProt P19327)
# T5 sequence (P19327 whole entry): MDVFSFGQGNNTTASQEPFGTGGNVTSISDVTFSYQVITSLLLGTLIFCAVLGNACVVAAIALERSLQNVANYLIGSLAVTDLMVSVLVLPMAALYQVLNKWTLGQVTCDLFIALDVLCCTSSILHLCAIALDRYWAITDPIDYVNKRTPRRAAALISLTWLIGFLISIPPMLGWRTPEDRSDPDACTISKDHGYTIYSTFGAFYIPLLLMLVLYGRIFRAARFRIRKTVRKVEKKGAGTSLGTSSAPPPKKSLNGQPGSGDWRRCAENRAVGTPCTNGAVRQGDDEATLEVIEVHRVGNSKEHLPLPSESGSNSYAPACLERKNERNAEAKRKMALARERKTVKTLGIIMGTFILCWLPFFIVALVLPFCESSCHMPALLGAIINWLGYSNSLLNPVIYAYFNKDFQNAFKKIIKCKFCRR
# [9] = molecular target: T6, Alpha-1A adrenergic receptor (Rattus norvegicus, UniProt P43140)
# T6 sequence (P43140 whole entry): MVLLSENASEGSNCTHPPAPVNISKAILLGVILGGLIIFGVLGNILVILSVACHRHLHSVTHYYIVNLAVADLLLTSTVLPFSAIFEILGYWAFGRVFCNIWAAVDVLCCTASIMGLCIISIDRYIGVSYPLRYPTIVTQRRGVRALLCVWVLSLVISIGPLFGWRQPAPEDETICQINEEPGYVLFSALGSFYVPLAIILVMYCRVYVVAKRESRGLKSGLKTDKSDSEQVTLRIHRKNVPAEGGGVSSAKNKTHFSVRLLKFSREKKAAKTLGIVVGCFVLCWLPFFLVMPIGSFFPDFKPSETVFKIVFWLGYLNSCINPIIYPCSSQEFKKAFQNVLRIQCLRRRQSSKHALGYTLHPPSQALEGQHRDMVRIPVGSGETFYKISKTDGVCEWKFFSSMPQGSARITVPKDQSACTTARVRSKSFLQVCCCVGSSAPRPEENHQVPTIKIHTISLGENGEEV
# [10] = molecular target: Gamma-aminobutyric acid receptor subunit alpha-1 (Rattus norvegicus, UniProt P62813)
# [11] = molecular target: T7, Alpha-2C adrenergic receptor (Rattus norvegicus, UniProt P22086)
# T7 sequence (P22086 whole entry): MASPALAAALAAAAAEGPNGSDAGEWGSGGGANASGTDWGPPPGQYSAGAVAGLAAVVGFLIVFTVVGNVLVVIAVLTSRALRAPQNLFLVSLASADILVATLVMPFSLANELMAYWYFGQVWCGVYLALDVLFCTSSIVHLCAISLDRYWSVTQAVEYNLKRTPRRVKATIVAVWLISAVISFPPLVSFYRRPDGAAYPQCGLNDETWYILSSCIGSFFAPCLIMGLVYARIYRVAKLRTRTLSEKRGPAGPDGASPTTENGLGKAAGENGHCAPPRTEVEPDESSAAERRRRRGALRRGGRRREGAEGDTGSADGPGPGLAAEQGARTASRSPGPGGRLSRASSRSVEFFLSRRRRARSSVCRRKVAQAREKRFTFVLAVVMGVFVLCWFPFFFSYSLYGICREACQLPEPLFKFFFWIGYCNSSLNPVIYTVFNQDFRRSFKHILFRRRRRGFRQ
# 5-hydroxytryptamine receptor 1B, sequence (P28564 whole entry): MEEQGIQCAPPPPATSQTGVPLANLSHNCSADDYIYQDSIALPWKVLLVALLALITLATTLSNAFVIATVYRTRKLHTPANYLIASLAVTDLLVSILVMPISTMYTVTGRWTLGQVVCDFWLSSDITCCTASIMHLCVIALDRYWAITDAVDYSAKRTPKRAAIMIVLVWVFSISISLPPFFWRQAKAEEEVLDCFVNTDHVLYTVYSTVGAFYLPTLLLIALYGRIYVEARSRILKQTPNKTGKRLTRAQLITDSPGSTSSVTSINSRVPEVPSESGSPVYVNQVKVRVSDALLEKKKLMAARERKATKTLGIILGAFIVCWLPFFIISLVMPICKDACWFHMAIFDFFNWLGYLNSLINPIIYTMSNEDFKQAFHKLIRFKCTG
# Beta-2 adrenergic receptor, sequence (P10608 whole entry): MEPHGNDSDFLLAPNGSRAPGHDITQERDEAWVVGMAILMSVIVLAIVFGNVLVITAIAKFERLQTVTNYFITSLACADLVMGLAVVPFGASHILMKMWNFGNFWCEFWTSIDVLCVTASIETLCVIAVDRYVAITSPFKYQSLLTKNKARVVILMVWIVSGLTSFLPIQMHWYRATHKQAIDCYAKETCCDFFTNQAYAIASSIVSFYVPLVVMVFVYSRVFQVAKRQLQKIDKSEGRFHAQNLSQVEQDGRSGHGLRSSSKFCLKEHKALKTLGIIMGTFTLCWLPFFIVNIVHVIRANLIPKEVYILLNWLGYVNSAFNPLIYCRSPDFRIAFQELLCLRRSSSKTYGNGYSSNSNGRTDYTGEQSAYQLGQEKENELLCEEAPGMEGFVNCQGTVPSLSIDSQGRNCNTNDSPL
# 5-hydroxytryptamine receptor 2A, sequence (P14842 whole entry): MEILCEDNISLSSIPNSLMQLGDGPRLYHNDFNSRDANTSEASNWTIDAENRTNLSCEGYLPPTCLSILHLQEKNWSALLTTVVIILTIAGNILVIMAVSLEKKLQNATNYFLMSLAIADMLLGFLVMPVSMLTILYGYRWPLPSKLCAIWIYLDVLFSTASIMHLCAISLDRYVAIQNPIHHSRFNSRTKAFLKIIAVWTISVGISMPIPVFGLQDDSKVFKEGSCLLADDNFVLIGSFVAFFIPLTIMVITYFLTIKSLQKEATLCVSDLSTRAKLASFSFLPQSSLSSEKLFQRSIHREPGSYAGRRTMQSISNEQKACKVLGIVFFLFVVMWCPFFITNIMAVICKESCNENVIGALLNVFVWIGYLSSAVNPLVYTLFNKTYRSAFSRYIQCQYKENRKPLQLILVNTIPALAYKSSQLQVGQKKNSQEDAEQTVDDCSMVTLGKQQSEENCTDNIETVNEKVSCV
# Gamma-aminobutyric acid receptor subunit alpha-1, sequence (P62813 whole entry): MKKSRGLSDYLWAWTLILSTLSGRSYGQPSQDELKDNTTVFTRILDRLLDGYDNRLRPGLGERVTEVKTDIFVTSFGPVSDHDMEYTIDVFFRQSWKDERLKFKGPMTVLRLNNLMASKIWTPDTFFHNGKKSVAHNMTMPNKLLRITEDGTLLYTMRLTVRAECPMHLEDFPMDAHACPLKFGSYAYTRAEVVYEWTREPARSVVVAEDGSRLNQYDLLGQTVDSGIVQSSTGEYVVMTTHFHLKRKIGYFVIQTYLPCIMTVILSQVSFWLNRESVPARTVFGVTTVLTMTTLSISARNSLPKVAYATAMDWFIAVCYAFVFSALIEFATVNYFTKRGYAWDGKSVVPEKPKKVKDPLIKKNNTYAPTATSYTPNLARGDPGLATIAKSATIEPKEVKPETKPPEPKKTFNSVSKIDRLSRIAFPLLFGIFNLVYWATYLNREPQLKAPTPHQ
SMILES,Ki [1] [nM],other results
COc1ccccc1N1CCNCC1,324,–
Clc1ccc(N2CCNCC2)cc1,120,–
c1ccc(N2CCNCC2)cc1,430,–
c1ccc2c(N3CCNCC3)cccc2c1,110,–
c1ccc(C2CCNCC2)cc1,440,–
COc1cccc2ccc(N3CCNCC3)nc12,360,–
CCCN(CCC)c1ccc2ccccc2n1,1000,–
c1ccc2nc(N3CCCCC3)ccc2c1,1000,–
c1cnc(N2CCNCC2)nc1 [1-PP],4000,–
c1ccc2nc(N3CCNCC3)ccc2c1 [2-Piperazin-1-yl-quinoline (Quipazine)],1.5,Ki [2]: 180 nM; Ki [3]: 200 nM; Ki [4]: > 10000 nM; Ki [5]: 5000 nM; Ki [6]: > 10000 nM; Ki [7]: 2900 nM
COc1ccc(N2CCNCC2)cc1 [4-METHOXYPHENYLPIPERAZINE],340,–
COc1cccc2ccc(N3CCN(C)CC3)nc12 [8-Methoxy-N-methylquipazine],440,–
"Clc1cncc(N2CCNCC2)n1 [L-630,571]",29,–
CCCN1CCN(c2ccc3ccccc3n2)CC1 [N-Propylquipazine],15,–
CN(C)C[C@@H]1C2CCC(CC2)[C@@H]1c1ccc(Cl)c(Cl)c1 [NSC_398],30,–
CN1CCN(c2nc3ccccc3c(=O)[nH]2)CC1 [NSC_63211],270,–
"Cc1cccc2ccc(N3CCNCC3)nc12 [QUIPAZINE,8-Me]",4.7,Ki [2]: 550 nM; Ki [8]: 1700 nM; Ki [3]: > 10000 nM; Ki [9]: > 10000 nM; Ki [10]: > 10000 nM; Ki [11]: 3800 nM; Ki [6]: > 10000 nM; Ki [7]: > 10000 nM
Clc1cccc(N2CCNCC2)c1 [mCPP],20,–
